The source of these data is patent publication US20080199484A1, “Use Of Cox-2 Inhibitor to Prevent T-Cell Anergy Induced By Dendritic Cell Therapy” (CEDARS-SINAI MEDICAL CENTER, priority 2003, published 2008).

The test system of one test is CD11c+ DCs. Nature of the test: Flow cytometric analysis of DC surface and maturation markers (CD86, HLA-DR, CD83, CCR7). The class given is cell-based, human. The following applies: FIG. 3; for CD83 and CCR7 expression (maturation markers) / CD86 expression, geometric mean: single-cultured iDCs; for CD83 and CCR7 expression (maturation markers): 16 hours co-stimulation, TNF-α 20 ng/ml; for CD86 expression, geometric mean: 16 hours, TRAIL 300 ng/ml and/or PGE2 0.1 μM, untreated iDCs: 647. The method, then: Human PBMCs were separated from peripheral blood of a healthy donor and the aforementioned glioblastoma patient using Ficoll-Hypaque density centrifugation. PBMC were resuspended in X-Vivo 15 serum-free medium (obtained from Cambrex; Santa Rosa, Calif.) and allowed to adhere to 24-well culture plate at 37° C. The non-adherent cells were removed after 2 hours. CD4+ and CD8+ cells were isolated from these non-adherent cells with MiniMACS cell separation unit (obtained from Milenyi Biotec, Auburn, Calif.) and microbeads conjugated mouse monoclonal anti-human CD4 and CD8 antibody (obtained from Milenyi Biotec). CD4+ and CD8+ cells were used for mixed lymphocyte reaction (MLR) described later. The adherent cells were subsequently cultured in X-Vivo 15 serum-free medium. 20 ng/ml GM-CSF (obtained from BioSource International) and 10 ng/ml IL-4 (obtained from BioSource International) were added to the cultures on days 0, 2, and 4. After 7-day culture, the floating cells were transferred to fresh plates with fresh X-Vivo 15 medium as immature DCs (iDCs). Several iDCs were cultured with 300 ng/ml TRAIL and/or 0.1 μM PGE2 (obtained from Sigma) and/or 20 ng/ml TNF-α for 16 hours (TRAIL-DCs, PGE2-DCs, TRAIL/PGE2-DCs, TRAIL/TNF-α-DCs, TRAIL/TNF-α/PGE2-DCs).
(§1) Glioma cells were plated to 6-well culture plate at density of 1×10^6 cells/well/2 ml with fresh X-Vivo 15 medium. Several glioma cells were pre-treated with the COX-2 inhibitor NS-398 for 8 hours. The NS-398 treated glioma cells were cultured with TNF-α, TRAIL, and NS-398. The other cells were cultured with TNF-α and TRAIL. After 24 hours culture with these agents, iDCs were put into the wells at the density of 3×10^5 cells/well, and were co-cultured with glioma cells for 16 hours. Several iDCs were cultured with TNF-α/TRAIL or TNF-α/TRAIL/NS-398 without tumor cells. Human glioma cell lines (U-87MG and LN-18) and stable transfectants (LN-18-COX-2 and LN-18-EP) were co-cultured with healthy donor iDCs, and MG-377 were co-cultured with autologous iDCs.
Monoclonal mouse anti-human antibodies of PE-conjugated CD83, CD86, HLA-DR (obtained from Phamingen), FITC-conjugated CD11c (obtained from BioSource International), and unconjugated CCR7 (R&D Systems; Minneapolis, Minn.) were used for cell surface analysis of DCs. PE-conjugated F(ab′)2 goat anti-mouse immunoglobulins (obtained from DAKO Cytomation; Carpinteria, Calif.) was used for secondary antibody. Mouse IgG1 and IgG2a (obtained from Phamingen) were used for isotype control. DCs were stained with anti-CD86, HLA-DR, CD83, and CCR7 antibodies before staining with anti-CD11c antibody, and CD11c+DCs were isolated with MiniMACS cell separation unit and microbeads-conjugated anti-FITC antibody (obtained from Milenyi Biotec).
DCs were stained with anti-CD86, HLA-DR, CD83, CCR7, and CD11c antibody. CD11c+ DCs were isolated with cell separation unit and microbease-conjugated anti-FITC antibody.
(Flow cytometry measures light scatter and fluorescence of single cells or particles in a stream.)

The next test deals with CD4+ T cells. Nature of the test: Mixed lymphocyte reaction and IFN-γ/IL-10 ELISPOT (Th cell polarization). The class given is cell-based, human.
Test [1] relates to glioma cells (U-87MG, LN-18, MG-377); iDCs. The test is classed as cell-based. The following applies: NS-398 treatment; data not shown.
In test [2] the test system is COX-2 protein in human glioma cells (U-87MG, LN-18, MG-377). Nature of the test: Western blot of COX-2 protein expression in human glioma cells. The test is classed as cell-based. The conditions noted are these: glioma cells treated with TRAIL and TNF-α plus COX-2 inhibitor (NS-398 10 μM); FIG. 1A. For orientation: Immunoblotting shows a protein as a band on a membrane.
Method: Samples were extracted with buffer containing 1% Triton X-100, 150 mM NaCl, 50 mM Tris (hydroxymethyl aminomethane) (pH 7.5) and 1 mM phenylmethylsulfonyl fluoride (PMSF). The cell debris was removed by centrifugation at 14,000 g for 20 minutes and the supernatant was subjected to SDS polyacrylamide gel electrophoresis (SDS-PAGE) and loaded on a 7.5% polyacrylamide gel (obtained from Bio-Rad; Hercules, Calif.). Electrophoretic transfer to nitrocellulose membranes (obtained from Amersham Biosciences; Piscataway, N.J.) was followed by immunoblotting with a mouse IgG1 anti-COX-2 antibody (obtained from Phamingen) or a mouse IgG1 anti-beta-tublin (obtained from Sigma). This was followed by hybridization with a peroxidase-linked anti-mouse IgG antibody (obtained from Amersham Bioscience). The signal was detected by chemiluminescence using ECL detection system (obtained from Amersham Bioscience) and Hyperfilm ECL (obtained from Amersham Bioscience).
Expression of COX-2 protein in human glioma cells was examined by Western blot (FIG. 1A).

A further test has as its system isolated CD11c+ DCs. The test can be described thus: IL-10 and IL-12p70 ELISA in supernatants of DC cultures. The test is classed as cell-based, human. The conditions noted are these: FIG. 4. The protocol: as §1
PGE2 ELISA kit (obtained from Cyman Chemical; Ann Arbor, Mich.) was used according to the manufacture's protocol for measurement in the supernatants of glioma cell cultures. IL-10 and IL-12 p70 ELISA kits (obtained from Phamingen) were used according to the manufacture's protocols for measurement in the supernatants of cultures of tumor cells or isolated CD11c+ DCs. CD40-CD40L interaction is a main trigger of IL-12 production by DCs (Cella, M. et al., “Ligation of CD40 on dendritic cells triggers production of high levels of interleukin-12 and enhances T cell stimulatory capacity: T-T help via APC activation,” J. Exp. Med., Vol. 184, pp. 747-752 (1996)). Based on this evidence, cells were co-cultured with NIH-CD40L cells (obtained from Dr. Gang Zeng, National Cancer Institute, N11, MD; the ratio of NIH-CD40L:DCs=1:1) for 16 hours, and the supernatants of co-cultures were used as the samples. The lower detection limit of each kit was 7.8 pg/ml. All samples and standards were run in duplicate.
IL-10 and IL-12p70 in the supernatants of cultures were measured by ELISA, and the results were statistically compared with NS-398(−) single-cultured DCs (FIG. 4).
(In general: In an ELISA, binding on a coated surface is turned into a signal by an enzyme label.)

The subject of test [3] is PGE2 in the supernatants of glioma cell cultures. Nature of the test: PGE2 ELISA in supernatants of glioma cell cultures. The class given is cell-based, human. The conditions noted are these: for PGE2 in the culture supernatants (ELISA): FIG. 1B. The protocol: Tumor cells, including U-87MG human glioma cell line (obtained from American Type Culture Collection; Rockville, Md.), LN-18 cell line (obtained from Dr. Erwin Van Meier, Emory University; Atlanta, Ga.), and primary cultured human glioma MG-377 (obtained from surgical specimen of a glioblastoma patient at neurosurgical institute, Cedars-Sinai Medical Center; Los Angeles, Calif.), were maintained at 37° C. and 5% CO2 in Dulbecco's Modified Eagles Medium (available from Sigma; St. Louis, Mo.; hereinafter “DMEM”) supplemented with 10% heat-inactivated fetal bovine serum (available from Sigma; hereinafter “[…]”), 2 mM […], 10 mM HEPES (available from Sigma), 100 U/ml penicillin (available from Sigma), 100 μg/ml streptomycin (available from Sigma). 100% di-methyl sulfonyl oxygen (available from Sigma; hereinafter “DMSO”) dissolved NS-398 (selective COX-2 inhibitor; obtained from Cayman Chemical) was used at concentrations of 10 μM. Recombinant human TNF-α (obtained from BioSource International; Camarillo, Calif.) was used at a concentration of 20 ng/ml and TRAIL (obtained from PeproTech Inc.; Rocky Hill, N.J.) was used at a concentration of 300 ng/ml.
as §1, with “iDCs. […]” for “iDCs.”
PGE2 in the culture supernatants was measured by ELISA (FIG. 1B).

Test [4] has as its system COX-2 overexpressing glioma cells. The conditions noted are these: supplementing with recombinant IL-12, in the absence of COX-2 inhibitor; cited from earlier work.
The mark [5] stands for this setting: DCs co-cultured with NS-398 treated glioma.
Where [6] appears, read: single-cultured DCs, compared with NS-398(−) single-cultured DCs.

As to `CCCCC[C@H](O)/C=C/[C@H]1[C@H](O)CC(=O)[C@@H]1C/C=C\CCCC(=O)O` [PGE2, ProstaglandinE2], in the test on CD11c+ DCs, the “CD83 and CCR7 expression (maturation markers)” value (“CD83 and CCR7 expression” for short) is “did not induce CD83 or CCR7 expression”; the “CD86 expression, geometric mean” value is on record as 2779. Moreover, the “Th cell polarization by tumor-infiltrating DCs” value in the test on CD4+ T cells (soluble PGE2 added into culture supernatant of LN-18-EP) is listed as “same effect on Th2 polarization as LN-18-COX-2”.

On to TNF-α, for which the “CD83 and CCR7 expression” value in the test on CD11c+ DCs was “induced both CD83 and CCR7 expressions”.

In the case of `CS(=O)(=O)Nc1ccc([N+](=O)[O-])cc1OC1CCCCC1` [NS-398], in test [1], the “death ratio in each glioma” value is on record as “did not cause a change of the death ratio”. In addition, in test [2], the “COX-2 expression (Western blot)” value was “did not extinguish the COX-2 expression”. Moreover, the “IL-10 (ELISA)” value with isolated CD11c+ DCs (setting [5]) is given as “downregulation of IL-10”. In the test on isolated CD11c+ DCs (setting [5]), the “IL-12 (ELISA)” value is listed as “augmentation of IL-12”. Besides, the “IL-10 production (ELISA)” value in the test on isolated CD11c+ DCs (setting [6]) was “did not effect to change”. Besides, the “IL-12p70 production (ELISA)” value in the test on isolated CD11c+ DCs (setting [6]) is recorded as “did not effect to change”. Moreover, the “PGE2 in the culture supernatants (ELISA)” value in test [3] (LN-18, each group) is “no significant difference”; in test [3] (U-87MG and MG-377, addition of NS-398 10 μM to TRAIL/TNF-α cultures, p<0.01) it was “significantly reduced”. The “PGE2 produced by the COX-2 transfectant” value in test [3] (LN-18-COX-2 stable transfectant) is given as “suppressed the PGE2”. Also, in the test with CD11c+ DCs (DCs co-cultured with glioma cells, with or without NS-398 treatment), the “geometric means of the expressing markers (CD86, HLA-DR, CD83, CCR7)” value was “no statistical difference”. Moreover, the “DC-mediated Th cell polarization” value in the test with CD4+ T cells (DCs co-cultured with COX-2-inhibited glioma cells, FIG. 5A-F) is reported as “bias toward Th1”. Also, the “Th cell polarization by tumor-infiltrating DCs” value with CD4+ T cells (LN-18-COX-2 stable transfectant with COX-2 inhibitor) was “polarizing the Th cells toward Th1”. In addition, the “IL-10 expression (ELISPOT)” value with CD4+ T cells (co-culture of primary glioma (MG-377) with autologous DCs, FIG. 5E) is “decrease in IL-10”; with CD4+ T cells (co-cultured DCs and glioma, FIG. 5A, 5B), “decrease in IL-10 expression”. Moreover, the “interferon-gamma expression (ELISPOT)” value in the test on CD4+ T cells (co-culture of primary glioma (MG-377) with autologous DCs, FIG. 5F) was “decrease in interferon-gamma”; with CD4+ T cells (co-cultured DCs and glioma, FIG. 5C, 5D) it was “increase in interferon-gamma expression”.

B1: TRAIL: TNF-related apoptosis inducing ligand, obtained from PeproTech, used at 300 ng/ml (protein, UniProt P50591 1-281, looked up)
Tumor necrosis factor ligand …: MAMMEVQGGPSLGQTCVLIVIFTVLLQSLCVAVTYVYFTNELKQMQDKYSKSGIACFLKEDDSYWDPNDEESMNSPCWQVKWQLRQLVRKMILRTSEETISTVQEKQQNISPLVRERGPQRVAAHITGTRGRSNTLSSPNSKNEKALGRKINSWESSRSGHSFLSNLHLRNGELVIHEKGFYYIYSQTYFRFQEEIKENTKNDKQMVQYIYKYTSYPDPILLMKSARNSCWSKDAEYGLYSIYQGGIFELKENDRIFVSVTNEHLIDMDHEASFFGAFLVG
Take B1: in the test with CD11c+ DCs, the “CD83 and CCR7 expression” value is listed as “did not induce CD83 or CCR7 expression”; the “CD86 expression, geometric mean” value was found to be 1086.

B2: recombinant IL-12: recombinant IL-12 supplementing DC-based glioma immunotherapy (Akasaki et al.) (protein, UniProt P43431 23-215; P43432 23-335, looked up)
Interleukin-12 subunit alpha: RVIPVSGPARCLSQSRNLLKTTDDMVKTAREKLKHYSCTAEDIDHEDITRDQTSTLKTCLPLELHKNESCLATRETSSTTRGSCLPPQKTSLMMTLCLGSIYEDLKMYQTEFQAINAALQNHNHQQIILDKGMLVAIDELMQSLNHNGETLRQKPPVGEADPYRVKMKLCILLHAFSTRVVTINRVMGYLSSA
Interleukin-12 subunit beta: MWELEKDVYVVEVDWTPDAPGETVNLTCDTPEEDDITWTSDQRHGVIGSGKTLTITVKEFLDAGQYTCHKGGETLSHSHLLLHKKENGIWSTEILKNFKNKTFLKCEAPNYSGRFTCSWLVQRNMDLKFNIKSSSSSPDSRAVTCGMASLSAEKVTLDQRDYEKYSVSCQEDVTCPTAEETLPIELALEARQQNKYENYSTSFFIRDIIKPDPPKNLQMKPLKNSQVEVSWEYPDSWSTPHSYFSLKFFVRIQRKKEKMKETEEGCNQKGAFLVEKTSTEVQCKGGNVCVQAQDRYYNSSCSKWACVPCRVRS
B2: in test [4], the “therapeutic effect of DC-based glioma immunotherapy” value is “potent therapeutic effect”.
